Three compounds from ChEMBL document CHEMBL3994622, “Design and synthesis of new RAF kinase-inhibiting antiproliferative quinoline derivatives. Part 2: Diarylurea derivatives” (Eur J Med Chem, 2017) can be followed below.

What all share (assay type): functional
In assay [1] the test system is LOX IMVI. Nature of the assay: Growth inhibition of human LOXIMVI cells assessed as cell growth at 30 uM incubated for 48 hrs by sulforhodamine B assay relative to control. To be noted: read-out: Activity.
For assay [2], the system named is MDA-MB-468. Nature of the assay: Growth inhibition of human MDA-MB-468 cells assessed as cell growth at 0.03 uM incubated for 48 hrs by sulforhodamine B assay relative to control. To be noted: MDA-MB-468, 48 h, read-out: Activity.
In assay [3] the test system is MDA-MB-468. The assay can be described thus: Growth inhibition of human MDA-MB-468 cells assessed as cell growth at 30 uM incubated for 48 hrs by sulforhodamine B assay relative to control. To be noted: MDA-MB-468, 48 h, read-out: Activity.
The subject of the next assay is HOP-62. Nature of the assay: Growth inhibition of human HOP62 cells assessed as cell growth at 0.005 uM incubated for 48 hrs by sulforhodamine B assay relative to control. To be noted: HOP-62, 48 h, read-out: Activity. On the technique in general: Sulforhodamine B stains cellular protein and so reports cell mass.
For another assay, the system named is NCI-H23. The assay can be described thus: Growth inhibition of human NCI-H23 cells assessed as cell growth at 0.005 uM incubated for 48 hrs by sulforhodamine B assay relative to control. To be noted: NCI-H23, 48 h, read-out: Activity.
The subject of another assay is NCI-H522. The assay can be described thus: Growth inhibition of human NCI-H522 cells assessed as cell growth at 0.005 uM incubated for 48 hrs by sulforhodamine B assay relative to control. To be noted: NCI-H522, 48 h, read-out: Activity.
The subject of assay [4] is SF-539. Nature of the assay: Growth inhibition of human SF539 cells assessed as cell growth at 0.005 uM incubated for 48 hrs by sulforhodamine B assay relative to control. To be noted: SF-539, 48 h, read-out: Activity.
The subject of another assay is U-251. Nature of the assay: Growth inhibition of human U251 cells assessed as cell growth at 0.005 uM incubated for 48 hrs by sulforhodamine B assay relative to control. To be noted: U-251, 48 h, read-out: Activity.
The subject of a further assay is Malme-3M. The assay can be described thus: Growth inhibition of human MALME-3M cells assessed as cell growth at 0.005 uM incubated for 48 hrs by sulforhodamine B assay relative to control. To be noted: read-out: Activity.
The test system of another assay is SK-MEL-2. The assay can be described thus: Growth inhibition of human SK-MEL-2 cells assessed as cell growth at 0.005 uM incubated for 48 hrs by sulforhodamine B assay relative to control. To be noted: SK-MEL-2, 48 h, read-out: Activity.
Another assay deals with OVCAR-4. Nature of the assay: Growth inhibition of human OVCAR4 cells assessed as cell growth at 0.005 uM incubated for 48 hrs by sulforhodamine B assay relative to control. To be noted: OVCAR-4, 48 h, read-out: Activity.
Assay [5] concerns OVCAR-8. Nature of the assay: Growth inhibition of human OVCAR8 cells assessed as cell growth at 0.005 uM incubated for 48 hrs by sulforhodamine B assay relative to control. To be noted: OVCAR-8, 48 h, read-out: Activity.
A further assay deals with BT-549. The assay can be described thus: Growth inhibition of human BT549 cells assessed as cell growth at 0.005 uM incubated for 48 hrs by sulforhodamine B assay relative to control. To be noted: BT-549, 48 h, read-out: Activity.
A further assay relates to SF-268. Nature of the assay: Growth inhibition of human SF268 cells assessed as cell growth at 0.05 uM incubated for 48 hrs by sulforhodamine B assay relative to control. To be noted: SF-268, 48 h, read-out: Activity.
Assay [6] deals with SF-295. The assay can be described thus: Growth inhibition of human SF295 cells assessed as cell growth at 0.05 uM incubated for 48 hrs by sulforhodamine B assay relative to control. To be noted: SF-295, 48 h, read-out: Activity.
For assay [7], the system named is SNB-19. Nature of the assay: Growth inhibition of human SNB19 cells assessed as cell growth at 0.05 uM incubated for 48 hrs by sulforhodamine B assay relative to control. To be noted: SNB-19, 48 h, read-out: Activity.
A further assay concerns OVCAR-3. The assay can be described thus: Growth inhibition of human OVCAR3 cells assessed as cell growth at 0.05 uM incubated for 48 hrs by sulforhodamine B assay relative to control. To be noted: OVCAR-3, 48 h, read-out: Activity.
Another assay concerns A498. The assay can be described thus: Growth inhibition of human A498 cells assessed as cell growth at 0.05 uM incubated for 48 hrs by sulforhodamine B assay relative to control. To be noted: A498, 48 h, read-out: Activity.
A further assay relates to PC-3. Nature of the assay: Growth inhibition of human PC3 cells assessed as cell growth at 0.05 uM incubated for 48 hrs by sulforhodamine B assay relative to control. To be noted: PC-3, 48 h, read-out: Activity.
Assay [8] has as its system HL-60(TB). The assay can be described thus: Growth inhibition of human HL-60(TB) cells assessed as cell growth at 0.5 uM incubated for 48 hrs by sulforhodamine B assay relative to control. To be noted: HL-60, 48 h, read-out: Activity.
The test system of assay [9] is SW-620. The assay can be described thus: Growth inhibition of human SW620 cells assessed as cell growth at 0.5 uM incubated for 48 hrs by sulforhodamine B assay relative to control. To be noted: SW-620, 48 h, read-out: Activity.
Assay [10] relates to SF-295. Nature of the assay: Growth inhibition of human SF295 cells assessed as cell growth at 0.5 uM incubated for 48 hrs by sulforhodamine B assay relative to control. To be noted: SF-295, 48 h, read-out: Activity.
Assay [11] has as its system SF-539. The assay can be described thus: Growth inhibition of human SF539 cells assessed as cell growth at 0.5 uM incubated for 48 hrs by sulforhodamine B assay relative to control. To be noted: SF-539, 48 h, read-out: Activity.
Assay [12] has as its system SNB-19. The assay can be described thus: Growth inhibition of human SNB19 cells assessed as cell growth at 0.5 uM incubated for 48 hrs by sulforhodamine B assay relative to control. To be noted: SNB-19, 48 h, read-out: Activity.
Assay [13] concerns LOX IMVI. Nature of the assay: Growth inhibition of human LOXIMVI cells assessed as cell growth at 0.5 uM incubated for 48 hrs by sulforhodamine B assay relative to control. To be noted: read-out: Activity.
The next assay has as its system CAKI-1. Nature of the assay: Growth inhibition of human Caki1 cells assessed as cell growth at 0.5 uM incubated for 48 hrs by sulforhodamine B assay relative to control. To be noted: CAKI-1, 48 h, read-out: Activity.
For a further assay, the system named is MCF7. Nature of the assay: Growth inhibition of human MCF7 cells assessed as cell growth at 0.5 uM incubated for 48 hrs by sulforhodamine B assay relative to control. To be noted: MCF7, 48 h, read-out: Activity.
The next assay relates to SR. The assay can be described thus: Growth inhibition of human SR cells assessed as cell growth at 5 uM incubated for 48 hrs by sulforhodamine B assay relative to control. To be noted: read-out: Activity.
Another assay concerns NCI-H460. Nature of the assay: Growth inhibition of human NCI-H460 cells assessed as cell growth at 5 uM incubated for 48 hrs by sulforhodamine B assay relative to control. To be noted: NCI-H460, 48 h, read-out: Activity.
For assay [14], the system named is OVCAR-8. The assay can be described thus: Growth inhibition of human OVCAR8 cells assessed as cell growth at 5 uM incubated for 48 hrs by sulforhodamine B assay relative to control. To be noted: OVCAR-8, 48 h, read-out: Activity.
The next assay has as its system NCI/ADR-RES. The assay can be described thus: Growth inhibition of human NCI/ADR-RES cells assessed as cell growth at 5 uM incubated for 48 hrs by sulforhodamine B assay relative to control. To be noted: read-out: Activity.
The next assay concerns 786-0. Nature of the assay: Growth inhibition of human 786-0 cells assessed as cell growth at 5 uM incubated for 48 hrs by sulforhodamine B assay relative to control. To be noted: 786-0, 48 h, read-out: Activity.
Assay [15] deals with HL-60(TB). The assay can be described thus: Growth inhibition of human HL-60(TB) cells assessed as cell growth at 50 uM incubated for 48 hrs by sulforhodamine B assay relative to control. To be noted: HL-60, 48 h, read-out: Activity.
The test system of another assay is EKVX. The assay can be described thus: Growth inhibition of human EKVX cells assessed as cell growth at 50 uM incubated for 48 hrs by sulforhodamine B assay relative to control. To be noted: read-out: Activity.
Assay [16] has as its system SW-620. Nature of the assay: Growth inhibition of human SW620 cells assessed as cell growth at 50 uM incubated for 48 hrs by sulforhodamine B assay relative to control. To be noted: SW-620, 48 h, read-out: Activity.

Consider `COc1cc2cc(Oc3ccc(NC(=O)Nc4ccc(Cl)c(C(F)(F)F)c4)cc3)c(C)nc2cc1OC`, for which the growth at 30 µM with LOX IMVI [1] is -100%.
For `Cc1nc2cc(O)c(O)cc2cc1Oc1ccc(NC(=O)Nc2ccc(Cl)c(Cl)c2)cc1`, the growth at 0.03 µM with MDA-MB-468 [2] was determined as 105%. In addition, the growth at 30 µM with MDA-MB-468 [3] was -34%.
Consider `COc1cc2cc(Oc3ccc(NC(=O)Nc4cccc(C(F)(F)F)c4)cc3)c(C)nc2cc1OC`, for which the growth at 0.005 µM in the assay on HOP-62 turned out to be 95%; in the assay on NCI-H23 it was 96%; in the assay with NCI-H522, 86%; in the assay with SF-539 [4], 104%; in the assay on U-251, 98%; in the assay with Malme-3M, 94%. Moreover, the growth at 0.005 µM in the assay with SK-MEL-2 is 102%; in the assay with OVCAR-4 it was 92%; in the assay with OVCAR-8 [5] it was 101%; in the assay with BT-549, 96%. Moreover, the growth at 0.05 µM worked out at 89% with SF-268; 91% in the assay with SF-295 [6]; 91% in the assay on SNB-19 [7]; 101% in the assay on OVCAR-3; 106% in the assay with A498; 99% in the assay with PC-3. The growth at 0.5 µM in the assay with HL-60(TB) [8] worked out at 112%; in the assay with SW-620 [9] it was 108%; with SF-295 [10] it was 86%; with SF-539 [11], 104%; with SNB-19 [12], 96%; in the assay on LOX IMVI [13], 97%. The growth at 0.5 µM in the assay on CAKI-1 was 91%; in the assay with MCF7 it was 85%. The growth at 5 µM is -19% with SR; 5% in the assay with NCI-H460; 10% in the assay with OVCAR-8 [14]; 11% in the assay on NCI/ADR-RES; 12% in the assay with 786-0. The values for the growth at 50 µM with HL-60(TB) [15], in the assay on EKVX and with SW-620 [16] were -43%, -48% and -37%, respectively.
